This note sets out measurements from patent publication US20250092046A1, “TYROSINE KINASE INHIBITORS” (THE UNIVERSITY COURT OF THE UNIVERSITY OF EDINBURGH, priority 2021, published 2025).

Assay [1] concerns SRC and its family members. Put plainly: Kinase screening assay, selectivity across the panel. Particulars: kinase panel of Table 1, 0.5 micromolar. Format: biochemical. The method, then: (§1) A 4× Substrate/ATP/Metal (1 […], 5 mmol/L Mg^2+) solution was prepared with buffer (20 mmol/L HEPES, 0.01% Triton X-100, 5 mmol/L DTT, pH 7.5), and a 2× kinase solution was also prepared with buffer (20 mmol/L HEPES, 0.01% Triton X-100, 1 mmol/L DTT, pH 7.5). 5 μL of 4× compound solution, 5 μL of 4× Substrate/ATP/Metal solution, and 10 μL of 2× kinase solution were mixed and incubated in a well of polypropylene 384 well microplate for 1 hour at room temperature. 70 μL of Termination Buffer (QuickScout Screening Assist MSA) was added to the well. The reaction mixture was applied to LabChip™ system, and the product and substrate peptide peaks were separated and quantitated.

Assay [2] deals with KIT (Homo sapiens, UniProt P10721). In words: Kinase screening assay (mobility shift, LabChip). It counts as biochemical. Particulars: 0.5 micromolar compound. As for the experimental part: as §1
Assay [3] deals with EGFR (Homo sapiens, UniProt P00533). Put plainly: Kinase screening assay (mobility shift, LabChip). It counts as biochemical. Particulars: 0.5 micromolar compound. As for the experimental part:
as §1

The target of assay [4] is BRK (Homo sapiens, UniProt Q13882). Put plainly: Kinase screening assay (mobility shift, LabChip). It counts as biochemical. Particulars: 0.5 micromolar compound. The method, then: as §1
The target of assay [5] is FGR (Homo sapiens, UniProt P09769). In words: Kinase screening assay (mobility shift, LabChip). Format: biochemical. Particulars: 0.5 micromolar compound. As for the experimental part: as §1
The target in assay [6] is ABL (Homo sapiens, UniProt P00519). Put plainly: Kinase screening assay (mobility shift, LabChip). Format: biochemical. The note with it: 0.5 micromolar compound. As for the experimental part:
as §1

The target of assay [7] is YES (Homo sapiens, UniProt P07947). Put plainly: Kinase screening assay (mobility shift, LabChip). The note with it: 0.5 micromolar compound. It counts as biochemical. The method, then:
as §1

In assay [8] the target is Her4 (Homo sapiens, UniProt Q15303). In words: Kinase screening assay (mobility shift, LabChip). It counts as biochemical. Particulars: 0.5 micromolar compound. As for the experimental part: as §1
The target in assay [9] is PDGFR alpha (Homo sapiens, UniProt P16234). Put plainly: Kinase screening assay (mobility shift, LabChip). It counts as biochemical. The note with it: 0.5 micromolar compound. The method, then: as §1
Assay [10] concerns the target HCK (Homo sapiens, UniProt P08631). Put plainly: Kinase screening assay (mobility shift, LabChip). Format: biochemical. The note with it: 0.5 micromolar compound. As for the experimental part:
as §1

Assay [11] has as its target RET (Homo sapiens, UniProt P07949). Put plainly: Kinase screening assay (mobility shift, LabChip). It counts as biochemical. Particulars: 0.5 micromolar compound. The method, then:
as §1

For assay [12], the target named is LYNa (Homo sapiens, UniProt P07948). Put plainly: Kinase screening assay (mobility shift, LabChip). Format: biochemical. Particulars: 0.5 micromolar compound. The method, then:
as §1

Assay [13] deals with FYNa (Homo sapiens, UniProt P06241). In words: Kinase screening assay (mobility shift, LabChip). Format: biochemical. Particulars: 0.5 micromolar compound. As for the experimental part:
as §1

The target of assay [14] is LCK (Homo sapiens, UniProt P06239). In words: Kinase screening assay (mobility shift, LabChip). It counts as biochemical. The note with it: 0.5 micromolar compound. As for the experimental part:
as §1

In assay [15] the target is SRC (Homo sapiens, UniProt P12931). Put plainly: Kinase screening assay (mobility shift, LabChip). It counts as biochemical. Particulars: 0.5 micromolar compound. As for the experimental part: as §1
Assay [16] concerns the target KDR (Homo sapiens, UniProt P35968). In words: Kinase screening assay (mobility shift, LabChip). It counts as biochemical. Particulars: 0.5 micromolar compound. The method, then: as §1
In assay [17] the test system is MDA-MB-231 breast cancer cells. Put plainly: Cell viability assay (PrestoBlue). Format: cell-based. Particulars: Homo sapiens, 120 h, 5 days treatment. As for the experimental part:
(§2) Cells were grown in Dulbecco's Modified Eagle Medium (DMEM) or Roswell Park Memorial Institute (RPMI) medium supplemented with serum (10% fetal bovine serum) and L-glutamine (2 mM) and incubated in a Heracell 240i tissue culture incubator at 37° C. and 5% Co2.
(§3) After 48 hours, the media was aspirated from each well and replaced with 95 μl of fresh medium. Compounds, including DMSO, were prepared at 20× in DMEM medium in a separate 96-well intermediate plate. 5 μl from the intermediate plate was then added to each well containing cells. Untreated cells were incubated with DMSO (0.1% v/v). After 5 days, PrestoBlue™ cell viability reagent (10 μl) was added to each well and the plates incubated for 60-90 min. Fluorescence emission was detected using a fluorescence plate reader (excitation 540 nm, emission 590 nm). All conditions were normalised to the untreated cells (100%) and dose-response curves were fitted using GraphPad Prism software.

Assay [18] concerns cancer cell lines. Put plainly: Screening in cancer cell lines (cell viability). Format: cell-based. As for the experimental part:
as §2, §3

Sequence of PDGFR alpha (P16234 24-1089): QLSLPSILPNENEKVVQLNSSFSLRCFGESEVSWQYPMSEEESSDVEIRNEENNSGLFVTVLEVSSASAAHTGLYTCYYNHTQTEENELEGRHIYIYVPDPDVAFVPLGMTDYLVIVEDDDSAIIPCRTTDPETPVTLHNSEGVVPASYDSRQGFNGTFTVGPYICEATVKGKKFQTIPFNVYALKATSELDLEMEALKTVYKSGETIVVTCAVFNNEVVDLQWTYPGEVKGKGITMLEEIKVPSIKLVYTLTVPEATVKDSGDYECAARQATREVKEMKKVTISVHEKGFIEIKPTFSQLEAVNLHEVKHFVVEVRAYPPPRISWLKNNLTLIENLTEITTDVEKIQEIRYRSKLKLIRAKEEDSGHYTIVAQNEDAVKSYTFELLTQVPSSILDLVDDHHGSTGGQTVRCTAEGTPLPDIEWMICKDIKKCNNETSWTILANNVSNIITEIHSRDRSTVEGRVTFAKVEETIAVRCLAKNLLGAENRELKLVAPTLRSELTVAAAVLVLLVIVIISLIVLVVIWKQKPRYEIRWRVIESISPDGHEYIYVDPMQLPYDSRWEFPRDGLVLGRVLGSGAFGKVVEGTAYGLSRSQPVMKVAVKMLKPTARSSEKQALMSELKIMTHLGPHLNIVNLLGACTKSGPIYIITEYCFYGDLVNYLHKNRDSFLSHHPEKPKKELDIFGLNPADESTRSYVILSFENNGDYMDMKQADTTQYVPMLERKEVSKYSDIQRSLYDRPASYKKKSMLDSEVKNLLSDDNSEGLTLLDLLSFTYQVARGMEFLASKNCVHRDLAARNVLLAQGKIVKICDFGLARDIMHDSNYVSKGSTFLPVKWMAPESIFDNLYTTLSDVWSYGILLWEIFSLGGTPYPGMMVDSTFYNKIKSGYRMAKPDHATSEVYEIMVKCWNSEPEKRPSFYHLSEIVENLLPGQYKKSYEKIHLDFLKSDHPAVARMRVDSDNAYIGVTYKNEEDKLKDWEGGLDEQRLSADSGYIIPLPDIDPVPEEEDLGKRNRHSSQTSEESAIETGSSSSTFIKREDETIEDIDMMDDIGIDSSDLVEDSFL
Sequence of YES (P07947 whole entry): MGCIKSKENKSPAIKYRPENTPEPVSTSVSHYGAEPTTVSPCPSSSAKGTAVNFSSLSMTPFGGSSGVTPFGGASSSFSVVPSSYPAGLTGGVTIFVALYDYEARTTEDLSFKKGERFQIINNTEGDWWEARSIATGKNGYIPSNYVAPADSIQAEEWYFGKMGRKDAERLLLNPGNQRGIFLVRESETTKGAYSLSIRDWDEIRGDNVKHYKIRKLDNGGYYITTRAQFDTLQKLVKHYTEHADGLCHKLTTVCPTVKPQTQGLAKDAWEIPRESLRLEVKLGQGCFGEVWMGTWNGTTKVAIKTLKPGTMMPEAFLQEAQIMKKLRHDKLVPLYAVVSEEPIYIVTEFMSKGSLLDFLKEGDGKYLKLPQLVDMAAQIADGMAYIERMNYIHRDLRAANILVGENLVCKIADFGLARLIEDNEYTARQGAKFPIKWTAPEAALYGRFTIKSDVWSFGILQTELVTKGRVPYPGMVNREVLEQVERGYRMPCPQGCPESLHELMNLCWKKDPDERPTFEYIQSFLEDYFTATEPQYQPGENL
Sequence of FYNa (P06241 whole entry): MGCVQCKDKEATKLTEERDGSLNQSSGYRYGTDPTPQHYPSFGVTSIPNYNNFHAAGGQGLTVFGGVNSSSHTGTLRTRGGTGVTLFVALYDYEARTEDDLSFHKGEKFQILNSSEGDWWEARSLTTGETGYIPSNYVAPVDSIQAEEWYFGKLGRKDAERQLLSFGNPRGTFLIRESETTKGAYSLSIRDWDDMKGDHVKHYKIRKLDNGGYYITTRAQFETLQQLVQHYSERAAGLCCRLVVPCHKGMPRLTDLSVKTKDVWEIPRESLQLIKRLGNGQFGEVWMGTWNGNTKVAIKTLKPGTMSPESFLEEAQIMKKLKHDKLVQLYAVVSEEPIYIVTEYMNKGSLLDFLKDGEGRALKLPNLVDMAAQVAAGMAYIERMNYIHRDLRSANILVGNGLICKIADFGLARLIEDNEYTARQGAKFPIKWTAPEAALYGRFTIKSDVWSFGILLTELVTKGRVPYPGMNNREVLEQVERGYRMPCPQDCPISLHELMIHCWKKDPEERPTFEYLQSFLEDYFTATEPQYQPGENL
Sequence of EGFR (P00533 25-1210): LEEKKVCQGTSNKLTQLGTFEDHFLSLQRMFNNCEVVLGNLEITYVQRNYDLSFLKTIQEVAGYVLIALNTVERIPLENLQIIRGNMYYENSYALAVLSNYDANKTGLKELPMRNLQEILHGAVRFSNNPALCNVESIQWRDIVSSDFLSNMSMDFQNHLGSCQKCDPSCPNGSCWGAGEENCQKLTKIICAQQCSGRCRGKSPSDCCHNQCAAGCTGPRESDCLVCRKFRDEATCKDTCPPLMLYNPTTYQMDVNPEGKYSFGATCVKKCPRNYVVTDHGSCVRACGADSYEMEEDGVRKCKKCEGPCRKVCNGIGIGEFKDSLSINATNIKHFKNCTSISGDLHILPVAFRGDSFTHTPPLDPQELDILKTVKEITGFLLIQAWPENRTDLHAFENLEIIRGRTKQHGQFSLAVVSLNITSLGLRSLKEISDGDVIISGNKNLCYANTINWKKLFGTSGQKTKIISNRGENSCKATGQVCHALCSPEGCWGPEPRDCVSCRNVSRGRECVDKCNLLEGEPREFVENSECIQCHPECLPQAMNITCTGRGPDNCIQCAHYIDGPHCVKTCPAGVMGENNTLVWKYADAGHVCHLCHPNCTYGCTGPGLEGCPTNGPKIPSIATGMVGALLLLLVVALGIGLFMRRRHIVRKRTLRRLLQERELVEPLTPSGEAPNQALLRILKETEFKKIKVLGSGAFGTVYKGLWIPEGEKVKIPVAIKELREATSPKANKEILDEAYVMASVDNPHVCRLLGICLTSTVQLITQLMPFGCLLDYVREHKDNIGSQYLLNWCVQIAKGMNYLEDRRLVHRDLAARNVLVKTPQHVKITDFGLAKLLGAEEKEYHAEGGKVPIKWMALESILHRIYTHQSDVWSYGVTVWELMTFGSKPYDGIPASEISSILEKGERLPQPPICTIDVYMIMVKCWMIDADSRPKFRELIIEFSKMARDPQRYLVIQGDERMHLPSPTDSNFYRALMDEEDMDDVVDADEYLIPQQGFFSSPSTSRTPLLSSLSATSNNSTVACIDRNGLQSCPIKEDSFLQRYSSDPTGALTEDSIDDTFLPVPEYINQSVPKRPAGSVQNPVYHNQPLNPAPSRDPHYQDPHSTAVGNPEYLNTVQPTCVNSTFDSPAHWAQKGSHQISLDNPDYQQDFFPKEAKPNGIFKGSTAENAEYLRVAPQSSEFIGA
Sequence of FGR (P09769 whole entry): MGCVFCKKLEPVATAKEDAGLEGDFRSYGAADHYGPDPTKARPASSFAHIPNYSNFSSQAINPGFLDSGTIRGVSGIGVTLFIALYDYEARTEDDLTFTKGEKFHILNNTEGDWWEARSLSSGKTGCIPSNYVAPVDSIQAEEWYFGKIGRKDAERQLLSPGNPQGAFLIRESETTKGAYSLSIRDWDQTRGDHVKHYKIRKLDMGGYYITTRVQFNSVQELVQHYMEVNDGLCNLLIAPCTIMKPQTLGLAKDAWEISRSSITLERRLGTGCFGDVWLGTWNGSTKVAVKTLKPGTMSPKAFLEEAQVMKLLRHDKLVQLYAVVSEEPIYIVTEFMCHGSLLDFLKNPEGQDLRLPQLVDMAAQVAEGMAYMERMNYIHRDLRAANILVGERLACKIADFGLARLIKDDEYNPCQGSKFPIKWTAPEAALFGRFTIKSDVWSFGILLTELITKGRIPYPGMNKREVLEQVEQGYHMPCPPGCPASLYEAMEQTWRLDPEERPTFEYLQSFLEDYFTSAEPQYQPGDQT
Sequence of LYNa (P07948 whole entry): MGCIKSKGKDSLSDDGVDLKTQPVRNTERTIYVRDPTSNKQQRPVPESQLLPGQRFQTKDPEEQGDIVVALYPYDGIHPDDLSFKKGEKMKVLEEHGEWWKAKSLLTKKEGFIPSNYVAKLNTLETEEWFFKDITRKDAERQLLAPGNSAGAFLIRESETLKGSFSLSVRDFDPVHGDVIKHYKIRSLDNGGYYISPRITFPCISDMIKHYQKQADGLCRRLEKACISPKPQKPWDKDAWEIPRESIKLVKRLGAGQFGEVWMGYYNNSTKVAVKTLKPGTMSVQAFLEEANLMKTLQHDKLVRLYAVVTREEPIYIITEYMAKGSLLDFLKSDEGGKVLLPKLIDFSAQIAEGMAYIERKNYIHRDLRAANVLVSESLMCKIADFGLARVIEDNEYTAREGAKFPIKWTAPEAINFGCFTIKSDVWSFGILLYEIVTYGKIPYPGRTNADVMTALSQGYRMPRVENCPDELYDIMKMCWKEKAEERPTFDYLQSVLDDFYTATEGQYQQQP
Sequence of SRC (P12931 whole entry): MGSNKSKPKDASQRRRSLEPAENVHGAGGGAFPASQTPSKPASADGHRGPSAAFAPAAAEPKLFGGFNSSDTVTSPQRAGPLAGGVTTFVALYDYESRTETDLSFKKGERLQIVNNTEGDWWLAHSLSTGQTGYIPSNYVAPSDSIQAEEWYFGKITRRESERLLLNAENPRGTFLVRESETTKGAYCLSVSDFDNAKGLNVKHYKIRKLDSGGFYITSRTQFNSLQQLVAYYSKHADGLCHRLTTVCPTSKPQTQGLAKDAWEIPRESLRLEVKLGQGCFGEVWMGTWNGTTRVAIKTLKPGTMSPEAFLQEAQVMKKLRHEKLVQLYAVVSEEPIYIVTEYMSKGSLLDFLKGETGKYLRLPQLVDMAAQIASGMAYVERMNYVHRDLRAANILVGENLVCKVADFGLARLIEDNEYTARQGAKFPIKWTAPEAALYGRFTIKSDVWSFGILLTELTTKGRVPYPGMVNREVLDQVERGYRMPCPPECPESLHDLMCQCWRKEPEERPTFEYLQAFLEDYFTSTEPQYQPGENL

Consider `CNC1CCN(CCn2nc(-c3ccc(NC(=O)OC(C)(C)C)c(OC)c3)c3c(N)ncnc32)CC1` [Compound 5a, tert-butyl (4-(4-amino-1-(2-(4-(methylamino)piperidin-1-yl)ethyl)-1H-pyrazolo[3,4-d]pyrimidin-3-yl)-2-methoxyphenyl)carbamate], for which the “selectivity for SRC and its family members over other kinases” value in [1] is recorded as “more selective than compound 506”. Also, the inhibition at 0.5 µM in [2] stood at 2.8%; in [3] it was 46.3%; in assay [4], 98.5%; in [5] it was 101%; in [6] it was 29.2%; in assay [7], 99.7%. Also, the inhibition at 0.5 µM in assay [8] was 97.6%; in [9] it was 13.6%; in assay [10], 105%; in [11] it was -0.3%; in [12], 102%; in assay [13], 99.4%. Further, the results for the inhibition at 0.5 µM in [14], in [15] and in [16] were 107%, 102% and 1.7%, respectively. This molecule displayed a GI50 in [17] of 16.2 nM. Moreover, the “potency and selectivity in cancer cell lines compared with parent compound 506” value in [18] is “retains the potency and selectivity characteristics of the parent compound 506”.

In the case of `COc1cc(-c2nn(CCN3CCC(NC(C)C)CC3)c3ncnc(N)c23)ccc1NC(=O)OC(C)(C)C` [Compound 8, tert-butyl (4-(4-amino-1-(2-(4-(isopropylamino)piperidin-1-yl)ethyl)-1H-pyrazolo[3,4-d]pyrimidin-3-yl)-2-methoxyphenyl)carbamate], in assay [1], the “selectivity for SRC and its family members over other kinases” value is reported as “more selective than compound 506”. Besides, the inhibition at 0.5 µM in assay [2] came to 2.7%; in assay [3], 58.2%; in [4], 99.5%; in assay [5], 100%; in assay [6], 24.2%; in assay [7], 102%. For the same molecule, the inhibition at 0.5 µM is 94.9% in assay [8]; 12.2% in assay [9]; 98.7% in [10]; -2.3% in [11]; 101% in [12]; 100% in assay [13]. The values for the inhibition at 0.5 µM in [14], in assay [15] and in assay [16] were 101%, 97.3% and -7.3%, respectively. The molecule further came in with a GI50 in assay [17] of 12.5 nM.

As to `COc1cc(-c2nn(CCN3CCC(N(C)C)CC3)c3ncnc(N)c23)ccc1NC(=O)OC(C)(C)C` [Compound 506, Tert-butyl (4-(4-amino-1-(2-(4-(dimethylamino)piperidin-1-yl)ethyl)-1H-pyrazolo[3,4-d]pyrimidin-3-yl)-2-methoxyphenyl)carbamate, reference compound], the inhibition at 0.5 µM was 4.4% in assay [2]; 46.1% in assay [3]; 100% in assay [5]; 99.7% in assay [7]; 96.7% in assay [8]; 13.5% in [9]. The inhibition at 0.5 µM in [10] came to 101%; in assay [11], 3.8%; in [12], 101%; in [13], 100%; in [14], 104%; in assay [15], 101%. In addition, the inhibition at 0.5 µM in [16] is 2.9%.

One may read the inhibition as the relative decrease from the control value, in per cent. A word on the GI50: it is the concentration that inhibits growth by half. High values mean lower sensitivity of the cells, low ones greater sensitivity of the cells.
